Laboratory results taken from patent US20220184147A1, “BACTERIAL ENZYMATIC CONVERSION OF ANTHRACYCLINE CHEMOTHERAPEUTICS TO REDUCE TOXICITY AND PROMOTE DIVERSITY AMONG THE INTESTINAL MICROBIOTA” (Northwestem University, priority 2019, published 2022).

How the values were obtained:
[1] = tested on: K. pneumoniae; assay: Modified resting cell assay with gentamicin; type: cell-based, Klebsiella pneumoniae; details: 10 or 50 μm gentamicin, anaerobic, 37° C., 24 h, controls
Method: FIG. 12A and FIG. 12B. Background gentamicin in culture media “fixes” K. pneumoniae to retain its biotransformation function despite thwarting cell growth. FIG. 12A: K. pneumoniae were first grown anaerobically at 37° C. in media in the presence of doxorubicin for 24 h (i.e., so initial biotransformation took place). Cultures were centrifugated into pellets, which were washed with buffer solution and resuspended in new media containing 100 μm doxorubicin and 0, 10, or 50 μm gentamicin. Inoculum was transferred to positive controls (i.e., with doxorubicin and same gentamicin treatment) and negative controls (i.e., contained doxorubicin, but no gentamicin). All samples were incubated anaerobically at 37° C. for 24 h and bacterial growth and final doxorubicin concentration (i.e., barplot) were determined. […] The two tubes on the far right are control growth media and doxorubicin-containing growth media (i.e., red color intensity corresponds to doxorubicin concentration in solution).
In a modified resting cell assay, we have shown that the biotransformation function can be harnessed without dependency on cell division. (See FIGS. 12A and 12B). Thus, it may be possible to “fix” K. pneumoniae in a form that enzymatically transforms Dox without presenting risk for in vivo colonization/growth. […]

[2] = tested on: Clostridium innocuum; assay: Sensitivity of monoculture growth to Dox at various concentrations; type: cell-based; details: C. innocuum
Source text: (§1) The impacts of doxorubicin on a model community of gut bacteria was investigated in vitro in anaerobic batch culture. The synthetic community was composed of specific members predicted by genomic analysis to be sensitive to the therapeutic (i.e., Clostridium innocuum, Lactobacillus sp.), resistant via putative biotransformation (i.e., Escherichia coli, Klebsiella pneumoniae), or resistant via putative efflux (i.e., Enterococcus faecalis). Bacterial growth was monitored in monocultures by measuring OD600 and standard plate counts, and in mixed cultures by strain-targeted qPCR. Doxorubicin concentration was detected via absorbance assay.
(§2) The effects of Dox on gut-associated bacteria then were investigated in vitro in monoculture and in a synthetic community. […] Bacteria were identified and quantified after culture and treatment using qPCR.
(§3) (See FIGS. 4-8). […] (See FIGS. 4 and 5, respectively).
(§4) (See FIGS. 7 and 8, respectively).

[3] = tested on: Lactobacillus; assay: as above; type: cell-based, Lactobacillus spp.
Source text: as §1, §2, §3, §4

[4] = tested on: Enterococcus faecalis; assay: Sensitivity or resistance of monoculture growth to Dox; type: cell-based; details: E. faecalis
Source text: as §1, §2, §3

[5] = tested on: Escherichia coli; assay: as above; type: cell-based; details: E. coli
Source text: as §1, §2, §3

[6] = tested on: Klebsiella pneumoniae; assay: as above; type: cell-based; details: K. pneumoniae
Source text: as §1, §2, §3

[7] = tested on: Escherichia coli; assay: Bacterial transformation of Dox, spectrophotometric assay of Dox concentration in culture / spent media
Source text: (§5) A spectrophotometric assay to measure the concentration of active, unmodified, non-transformed doxorubicin was adopted.
(§6) A spectrophotometric assay to measure the concentration of doxorubicin was adopted. […] Our spectrophotometric assays measure the concentration of active, unmodified, non-transformed doxorubicin (Dox) via absorption at λ480 versus concentration of Dox μM.
(§7) We next tested the sensitivity or resistance of Escherichia coli, Klebsiella pneumonia, Enterococcus faecalis, Clostridium innocuum or Lactobacillus spp. to Dox at various concentrations. (See FIGS. 4-8). […] (See FIGS. 4 and 5, respectively).

[8] = tested on: Klebsiella pneumoniae; assay: as above
Source text: as §5, §6, §7

[9] = tested on: Enterococcus faecalis; assay: as above
Source text: as §5, §6

[10] = tested on: C. innocuum; assay: Growth of Dox-sensitive strain in 50% spent media of resistant strains; type: cell-based, Clostridium innocuum
Method: (§8) We previously observed that a Dox concentration as low as 10 μM can inhibit the growth of C. innocuum and Lactobacillus. (See FIGS. 7 and 8, respectively).

[11] = tested on: Lactobacillus; assay: as above; type: cell-based, Lactobacillus spp.
Method: as §8

[12] = tested on: synthetic community of C. innocuum, E. coli, E. faecalis, and K. pneumoniae; assay: Mixed-batch culture of synthetic community treated with Dox in second generation; type: cell-based; details: Dox 100 μM added in second generation
Method: We next performed a mixed-batch culture experiment. (See FIGS. 10A and 10B). We prepared a synthetic community by combining cultures of C. innocuum, E. coli, E. faecalis, and K. pneumoniae. We cultured the synthetic community and allowed community formation in a first generation. Subsequently, we added Dox at a concentration of 100 μM and monitored the growth of the members of the synthetic community after treatment/disturbance in a second generation. We then cultured the synthetic community though resiliency in a third generation.
(See FIGS. 10B, middle panel).

[13] = tested on: mixed-microbial communities of C. innocuum, Lactobacillus sp., E. faecalis, E. coli, and K. pneumoniae; assay: Mixed-microbial communities C1-C5 in continuous anaerobic batch culture exposed to Dox in generation 2; type: cell-based
Method: FIG. 11A, FIG. 11B, FIG. 11C, FIG. 11D, and FIG. 11E. […] C1 began with even content of model strains of C innocuum^S, Lactobacillus^S sp., E. faecalisR, E. coli^R*, and K. pneumoniae^R*. C2 included less E. faecalis^R. C3 included less E. coli^R* . C4 included less K. pneumoniae^R*, and C5 included less E. coli^R* and K. pneumoniae^R*. The bacterial communities were grown in continuous batch culture and exposed to different concentrations Dox in generation 2.
The impacts of doxorubicin concentration and microbial community membership (and associated function) on the reduction of bioactive drug and associated microbial community resiliency were investigated in vitro in continuous anaerobic batch culture. Optical density measurements coupled with 16S rRNA gene amplicon sequencing analysis were used to estimate relative bacterial growth and a spectrophotometric assay was used to measure doxorubicin concentration. […] C1 began with even content of model strains of C. innocuum^S, Lactobacillus^S sp., E. faecalis^R, E. coli^R*, and K. pneumoniae^R*. C2 included less E. faecalis^R. C3 included less E. coli^R*. C4 included less K. pneumoniae^R*, and C5 included less E. coli^R* and K. pneumoniae^R*. The bacterial communities were grown in continuous batch culture and exposed to different concentrations Dox in generation 2.
C1, C2, and C3, may have been enhanced in communities with greater bacterial diversity. (See FIGS. 11A, 11B, and 11C, and compare C1 to C2 and C3, at least for the medium concentration). […] (See FIG. 11D, C4). […] (See FIG. 11E, C5). […] (See FIGS. 11A, 11B, and 11C, C1, C2, and C3, generation 3). […] Thus, microbial community membership (and associated function) impacted the rate of doxorubicin transformation, which, in turn, may confer protective effects on drug-sensitive members in gut-microbial communities.

[14] = spent media of E. coli and K. pneumoniae, Dox 4.1±2.5 μM and 4.4±0.9
[15] = spent media of E. faecalis, Dox 48.4±0.8 μM

gentamicin was tested, and the “Effect on K. pneumoniae growth” value [1] was “stalled K. pneumoniae growth”.

In the case of COc1cccc2c1C(=O)c1c(O)c3c(c(O)c1C2=O)C[C@@](O)(C(=O)CO)C[C@@H]3O[C@H]1C[C@H](N)[C@H](O)[C@H](C)O1 [Dox, doxorubicin], the “Growth after 25 hours” value ([2]; Dox 100 μM) is reported as “did not observe any growth”, the “Dox concentration at which delayed growth was observed” value ([2]; monoculture) is reported as at most 10 µM and the “Sensitivity to Dox” value ([2]; monoculture) is reported as “highly sensitive”. For the same compound, the “Growth after 25 hours” value ([3]; Dox 100 μM) was “did not observe any growth”, the “Dox concentration at which delayed growth was observed” value ([3]; monoculture) was at most 10 µM and the “Sensitivity to Dox” value ([3]; monoculture) was “highly sensitive”. The “Resistance to Dox” value [4] was “resistant to Dox”, the “Resistance to Dox” value [5] was “resistant” and the “Resistance to Dox” value [6] was “resistant”. For the same compound, the “Change of Dox concentration in culture” value ([7]; E. coli culture, absorption at λ480) was “reduced Dox concentration in culture”, the “Dox concentration in the 50% spent media” value ([7]; E. coli grown with initial 250 μM Dox) was 4.1 ± 2.5 µM and the “Change of Dox concentration in culture” value ([8]; K. pneumoniae culture, absorption at λ480) was “reduced Dox concentration in culture”. For the same compound, the “Dox concentration in the 50% spent media” value ([8]; K. pneumoniae grown with initial 250 μM Dox) was 4.4±0.9, the “Change of Dox concentration in culture” value ([9]; E. faecalis culture, absorption at λ480) was “did not reduce the Dox concentration in culture” and the “Dox concentration in the 50% spent media” value ([9]; E. faecalis grown with initial 100 μM Dox) was 48.4±0.8. The “Growth in 50% spent media” value [10, 14] was “able to grow”, the “Growth in 50% spent media” value [10, 15] was “unable to grow” and the “Growth in 50% spent media” value [11, 14] was “able to grow”. The “Growth in 50% spent media” value [11, 15] was “unable to grow”, the “Growth of Dox-sensitive C. innocuum in synthetic community” value [12] was “grew only following doxorubicin transformation” and the “Transformation of Dox by bacterial communities” value ([13]; communities containing E. coli and lacking K. pneumoniae (C4)) was “at a slower rate”. For the same compound, the “Transformation of doxorubicin by bacterial communities” value ([13]; communities containing E. coli or K. pneumoniae) was “rapid transformation”, the “Transformation of Dox by bacterial communities” value ([13]; communities without either K. pneumoniae or E. coli (C5)) was “not able to enzymatically transform Dox” and the “C. innocuum growth in mixed communities” value ([13]; generation 2, medium and high concentrations of doxorubicin) was “not detected in all cultures”.
